Data taken from patent publication US7049329B2, “Amines that inhibit a mammalian anandamide transporter, and methods of use thereof” (Sepracor Inc., priority 2002, dated 2006).
pIC50: −log10 of the molar value. Values joined by “and” are separate entries in the source; they are usually repeats but may differ in a detail not shown here. Identical values can stand only once.

Columns and labels:
[1] = test system: mammalian anandamide transporter; assay: Anandamide uptake functional assay; format: cell-based, human; conditions: reference compound; U-937 cells, [3H]-AEA uptake; read-out: IC50 of AM-404 in this assay
Description: The characterization of anandamide uptake was performed with human monocytes (U-937 cells), using a 96 wells format (volume of the reaction 500 μL). Uptake of radiolabelled anandamide by U-937 cells (10^5 cells in 400 μL/well) occured during a 15 minutes incubation time at 37° C. in the presence of test compounds added in solution in 50 μL and 50 μL of [^3H]-AEA (2 nM)/AEA (98 nM).
U-937 cells and [^3H]-AEA/AEA were prepared in a Krebs buffer pH 7.4 containing 25 mM NaHCO3, 11 mM glucose, 50 μM ascorbic acid and 1% BSA. This incubation buffer is oxygenated for 5 minutes before incubation. Basal control is incubated for 15 minutes at 4° C., in absence of any test or reference compound to prevent uptake.
Following incubation, uptake was stopped by filtration through a “unifilter 96-well GFB plate” (Packard) washed with Krebs buffer containing 25 mM NaHCO3 to eliminate the free [^3H]-AEA. The radioactivity associated with the U-937 cells corresponding to the uptake was retained on the unifilter and was measured with a Topcount Microplate Scintillation Counter, (Packard) using Microscint 0 scintillation liquid (Packard).
FIGS. 3–5 depict certain compounds of the present invention and their IC50 values as determined in this assay. […]

AT = conditions: background; read-out: IC50, inhibits AT; cited from earlier work
mice = assay: Hot plate test in mice (nociceptive reaction latency); format: in vivo; conditions: i.v., Anandamide 20 mg/kg, Compound 4 10 mg/kg, cut-off 30 seconds; for Nociceptive Reaction Latency, Mean: N 10; for Nociceptive Reaction Latency, individual mice: hot plate 56° C.
Description: This experiment assessed the analgesic effects of anandamide, compound 4, and a combination of anadamide and compound 4 in the hot plate test in mice.
One hundred (100) male Swiss mice ICO: OF1 (IOPS Caw) (Iffa Credo, France) weighing 17 g to 23 g were used in the study. The mice were housed in a temperature (19.5–24.5° C.) and relative humidity (45–65%) controlled room with a 12-h light/dark cycle, with ad libitum access to filtered tap-water and standard pelleted laboratory chow (U.A.R., France) throughout the study. Upon receipt at animal facilities, they were housed 20 per cage and at least a 5-day acclimatization period was observed. Animals were individually identified on their tails.
Ten groups of 10 animals each were used in this study. The individual groups were treated as set forth below. The doses used are expressed in terms of free active substance. The test and reference substances and the vehicle were administered by intravenous route (i.v) in a random order with a volume of 5 mL/kg. Anandamide and compound 4 were concomitantly administered as a mixture by intravenous route under a volume of 10 mL/kg (Groups 3, 7 and 10).
Twenty, thirty and sixty minutes after dosing, a given mouse was placed on a metallic hot plate maintained at 56±0.2° C. The nociceptive reaction latency, characterized by a licking reflex of the forepaws or by a jumping off the hot plate, was recorded. The cut-off time was set to 30 seconds. See Eddy NB, Touchberry CF, Lieberman JE. “Synthetic analgesics.
The mean results from these experiments are presented graphically in FIG. 6. The results tabulated in FIG. 6 are expressed as mean±sem. ANOVA (2 ways): time/treatment's effect as well as interaction between the two, for vehicle, anandamide and association groups. Dunnett's test: * indicates a significant difference in comparison with the vehicle-treated group for P<0.05. Dunnett's test :† indicates a significant difference in comparison with the same treated group at t−60 min for P<0.05. ANOVA (1 ways): at t−30 min for vehicle, anandamide, compound 4 and association groups. Dunnett's test: ° indicates a significant difference in comparison with the vehicle-treated group for P<0.05. Vehicle: Saline+20% DMSO; n=10 mice per groups.

Compound	pIC50 [1]	pIC50 (AT)	Nociceptive Reaction Latency, Mean (mice; 20 minutes post-administration) [s]	Nociceptive Reaction Latency, individual mice (mice; 20 minutes post-administration)	Nociceptive Reaction Latency, Mean (mice; 30 minutes post-administration) [s]	Nociceptive Reaction Latency, individual mice (mice; 30 minutes post-administration)	Nociceptive Reaction Latency, Mean (mice; 60 minutes post-administration) [s]	Nociceptive Reaction Latency, individual mice (mice; 60 minutes post-administration)
CCCCC/C=C\C/C=C\C/C=C\C/C=C\CCCC(=O)Nc1ccc(O)cc1 [AM-404, N-(4-hydroxyphenyl)arachidonamide]	5.70	~5.70						
CCCCC/C=C\C/C=C\C/C=C\C/C=C\CCCC(=O)NCCO [Anandamide, N-(2-hydroxyethyl)arachidonamide]			8.9	10.3 s and 21.2 s and 6.3 s and 8.8 s and 4.9 s and 5.3 s and 8.1 s and 7.8 s and 5.1 s and 11.5 s	8.1	8.9 s and 7.5 s and 10.7 s and 7.9 s and 5.2 s and 9.7 s and 10 s and 7.1 s and 6.5 s and 7.8 s	11.7	6.9 s and 11.1 s and 10.1 s and 9.3 s and 11.7 s and 8.9 s and 16.1 s and 13.5 s and 24.4 s and 4.6 s
C=CCOc1ccc(CN(CC=Cc2ccccc2)CCOC)cc1 [Compound 4, N-(4-Allyloxybenzyl)-N-(2-methoxyethyl)-N-(3-phenyl-allyl)amine]					10.2	10 s and 12.8 s and 14.5 s and 4.5 s and 10.4 s and 4.2 s and 9.6 s and 13.5 s and 16.3 s and 6.1 s		
